“Also recorded” adds a separate entry of the source.
Columns and labels:
Format in all cases: in vivo, mouse (C57BL/6N)
Jun = test: Quantitative PCR detection of Jun expression in cardiomyocytes of HFpEF model mice; details: HFD+L-NAME mice treated with T-5224, compared with the model control group; qPCR, b-Actin standardized; FIG. 3D
From the text: Male C57BL/6N wild-type mice aged 8 to 10 weeks were divided into three groups, namely, normal group (normal diet and drinking water), model control group (high-fat diet combined with administration of N-nitro-L-arginine methyl ester) and model treatment group (high-fat diet combined with administration of N-nitro-L-arginine methyl ester and treatment with T-5224). Among them, the model control group and the model treatment group were modeled by the following literature: Gabriele G. Schiattarella et al., Nitrosative stress drives heart failure with preserved ejection fraction, https://doi.org/10.1038/s41586-019-1100-z. […]
In the 15th week of model induction, the cardiomyocytes of normal group and the model control group were isolated by perfusion method, and quantitative RCR detection was performed. […]
Total RNA was extracted from cells using GeneJet RNA purification kit (Thermo Scientific, K0732), and […] of total RNA was reverse transcribed using iScript TM cDNA synthesis kit (Bio-Rad, 1708890) to generate cDNA. qPCR was performed using iTaqUniversl SYBR Green supermix (1725121, Bio-Rad) on ABI Vii7 real-time system (Life Technologies, Q6), and b-Actin was used for standardized quantitative analysis. […]

[1] = Changes in body weight / obesity of HFpEF model mice with different treatments; details: HFD+L-NAME mice treated with T-5224 (total dose 250 mg/kg); FIG. 3C
From the text: (§1) Male C57BL/6N wild-type mice aged 8 to 10 weeks were divided into three groups, namely, normal group (normal diet and drinking water), model control group (high-fat diet combined with administration of N-nitro-L-arginine methyl ester) and model treatment group (high-fat diet combined with administration of N-nitro-L-arginine methyl ester and treatment with T-5224). Among them, the model control group and the model treatment group were modeled by the following literature: Gabriele G. Schiattarella et al., Nitrosative stress drives heart failure with preserved ejection fraction, https://doi.org/10.1038/s41586-019-1100-z. Specifically, heart failure with preserved ejection fraction was induced by a high-fat diet (HFD) (60% kcal, from fat (lard)) and N-nitro-L-arginine methyl ester (abbreviated as L-NAME, 0.5 g/L in drinking water) to obtain the HFpEF animal model.
After the animal model was obtained, that was, from the 5′ week of inducing the HFpEF model, the model treatment group was treated with T-5224, the model control group was treated with a solvent without drug, and the mice with normal diet and drinking water during the whole induction process were used as negative control. The mice were administrated with drugs when they were raised for 5 weeks. For the treatment group, T-5224 was administered at 250 mg/kg according to the body weight of mice. […]

mouse HFpEF model = test: Echocardiography and Doppler imaging (systolic and diastolic function) in HFpEF model mice (HFD+L-NAME); details: male mice
From the text: as §1, with “model. […]” for “model.”
All the mice were raised under different conditions for five weeks and then began to undergo conventional echocardiography and Doppler imaging, which was performed every two weeks until the end of the 15th week. […] All parameters were measured at least 3 times, and the mean values were provided. […]

What does the source list for `O=C(O)CCc1cc(C(=O)c2ccc(OC3CCCC3)cc2O)ccc1OCc1ccc2c(O)noc2c1` [T-5224]?
expression of Jun in cardiomyocytes (Jun): down-regulated compared with the model control group; mouse obesity (changes in body weight) [1]: improved; diastolic function (E/E′) (mouse HFpEF model; HFD+0.5 g/L L-NAME, T-5224 0.8 mg in 200 μL 1% PVP every other day, 5th to 13th week, total dose 250 mg/kg, followed to 15th week, FIG. 3B): significantly improved and could be maintained until the 15th week; occurrence and development of HFpEF (mouse HFpEF model; HFD+L-NAME, cardiac function detection after T-5224 administration (from 5th week, total dose 250 mg/kg), FIG. 3A-B, 250 mg/kg): effectively alleviate the occurrence and development of HFpEF; also recorded: well suppressed

Reference: US20260355164A1, “USE OF JUN INHIBITOR IN PREPARING MEDICAMENT FOR TREATING HEART FAILURE WITH PRESERVED EJECTION FRACTION” (Fuwai Hospital, Chinese Academy of Medical Sciences and …, priority 2022, published 2026)
